Source: patent US20050106305A1, “Beverage compositions comprising monatin and methods of making same” (Cargill, Inc., priority 2003, published 2005)
Each block holds one compound with its values, some of them ahead of it. Where a SMILES comes first, the peptide text is derived from it.

Experiments:
[1] = Monatin dose response, sweetness estimation in pH 3.2 model soft drink system; type: in vivo; settings: for SEV: pH 3.2 model soft drink system
Description: Solutions of monatin (mixture of approximately 96% of the 2R,4R/2S, 4S enantiometric pair and 4% of the 2R,4S/2S,4R enantiometric pair-also called “racemic mix” of monatin”) at 15, 30, 45, 60, 75 and 90 ppm were prepared in a pH 3.2 model soft drink system that contained 0.14% (w/v) citric acid and 0.04% (w/v) sodium citrate. The sweetness of monatin relative to sucrose was determined using the sweetness estimation methodology described below. All assessments were carried out in duplicate by a panel (n=6-8) of trained panelists experienced in this sweetness determination procedure. All samples were served at a temperature of 20° C. ±1° C.
Monatin solutions were coded and presented individually to panelists, in random order. Sucrose reference standards, ranging from 2.0-11.0% (w/v) sucrose, increasing in steps of 0.5% (w/v) sucrose also were provided. Panelists were asked to estimate sweetness by comparing the sweetness of the test solution to the sucrose standards. This was carried out by taking 3 sips of the test solution, followed by a sip of water, followed by 3 sips of sucrose standard followed by a sip of water, etc. Panelists were encouraged to estimate the sweetness to one decimal place, e.g., 6.8, 8.5. A five minute rest period was imposed between evaluating the test solutions. Panelists also were asked to rinse well and eat a cracker to reduce any potential carry over effects.

[2] = Equisweet blends of monatin with carbohydrate sweeteners (parity to 10.0% sucrose); type: in vivo; settings: for Effective Relative Sweetness Intensity (x sucrose) of Monatin: blend with sucrose equisweet to 10.0% sucrose
Description: Blends of monatin (as described in Example 14) with sucrose, HFCS (55% fructose), and glucose syrup (63 dextrose equivalents, DE) equisweet to 10.0% (w/v) sucrose were prepared. For each carbohydrate sweetener, the monatin:sweetener ratio was adjusted so that monatin delivered 25, 50, and 75% of the total sweetness. Sweetness parity to 10.0% (w/v) sucrose was determined using the sweetness estimation method described in Example 14. As in Example 14, all assessments were carried out in the pH 3.2 model soft drink system, using 6-8 panelists, each tasting in duplicate. Results are presented as Tables 7-9.

[3] = Sensory stability of monatin in water; type: physicochemical
Description: The sensory stability of monatin (racemic mix described in Example 14) in water (8% SEV) was studied after storage at room temperature for 0 to 6 hours. The SEV was monitored (as described above in Example 14) at either 0-1 hours or 5-6 hours after preparing a monatin solution.

[4] = Sweetness dose response of monatin and saccharin, model system pH 3.2; type: in vivo
Description: Sweetness of monatin and saccharin was assessed using 20 trained sensory evaluators, making judgements in duplicate. Test and reference solutions were prepared in citric/citrate buffer at pH 3.2. […] The plateau above 10% SEV indicates absence/low levels of “mixture-suppressing” off-tastes and aftertastes. The shape of monatin's dose-response curve is similar to those of aspartame, sucralose and alitame, all of which are “quality” sweeteners.

[5] = Stability of monatin at pH 3 with increasing temperatures; type: physicochemical
Description: A sample of synthetic monatin was subjected to pH 3 at temperatures of 25° C., 50° C. and 100° C. At room temperature and pH 3, a 14% loss in monatin was observed over a period of 48 hours. This loss was attributed to lactone formation. At 50° C. and pH 3, a 23% loss in monatin was observed over a period of 48 hours. This loss was attributed to lactone formation and the buildup of an unknown compound after about 15.5 minutes. […] The major detectable component was an unknown at 15.5 minutes.

[6] = Stability when exposed to ultra violet (UV) light; type: physicochemical; settings: phosphoric/citrate buffer at pH 3.0, ambient temperature; data not shown
Text: UV instability can be accelerated by certain flavor systems. UV-absorbing packaging material, colorants and/or antioxidants can protect against UV light-induced flavor interactions in monatin-containing beverages.

[7] = Stability of monatin at 80° C. and neutral pH, LC-MS; type: physicochemical; settings: 75 ppm
Description: A 100 milliliter solution of 75 ppm monatin at pH 7 was used as a stock solution. The synthetic monatin sample contained approximately 96% of the 2R,4R/2S,4S enantiomeric pair and 4% of the 2R,4S/2S,4R enantiomeric pair. Samples were incubated at 80° C. and pH 7 for the duration of the experiment and samples were withdrawn at 0, 1, 2, 3, 4 hours and 1, 2, 4, 7, 14, 21 and 35 days. All experimental conditions were run in duplicate.
Separation and Quantification Using LC-MS Using Reverse Phase Chromatography—A response curve was established for both detected diastereomer peaks of the synthetic monatin. A range of 5-150 ppm was bracketed with the synthetic monatin standard dissolved in DI water. Separation of the two diastereomer peaks was accomplished using a 3.9×150 mm Novapak C18 (Waters Corporation) HPLC column. Ultraviolet-Visible (UV) and Mass Spectrometer (MS) detectors were used in series for detection and quantitation. Monatin and its lactone peak each have a UVmax at 279 nm that aided in precise detection. Quantification was done by acquiring Selected Ion Monitoring (SIM) scan of 293.3 m/z and 275.3 m/z in positive-ion electrospray mode.

[8] = Quantitative synergy of monatin with other sweeteners; type: in vivo
[9] = Sensory evaluation of sweeteners in coffee and iced tea; type: in vivo; settings: Coffee, 200 mL serving; aspartame 250 ppm, sucralose 82 ppm, R,R monatin 25 ppm + maltodextrin or erythritol (1 g, 0.5%)
Description: Monatin sweetener formulations, comprising R,R monatin or R,R monatin/erythritol combinations, were assessed relative to other known sweeteners (aspartame and sucralose) in coffee and iced tea. The key sensory parameters assessed included sweetness quality, aftertaste, bitter taste and its aftertaste. Qualitative evaluation was carried out.
Standard coffee was used in which to evaluate sweetener performance (Table 17).
Sweeteners were added to coffee at the following concentrations:
An ice tea formulation was developed to evaluate sweetener performance (Table 18).
Sweeteners were added to tea at the following concentrations:
The evaluation of these coffee and tea drinks was carried out by a panel (n=6) of experienced sensory evaluators who evaluated the coffee products on one tasting occasion and the tea products on a subsequent occasion.

[10] = sole sweetener in the model system (pH 3.2)

loss of monatin SEV ([3]; 8% SEV, after 6 hours in room temperature): no detectable loss
lactonization (LC/MS) ([3]; room temperature, 0 to 6 hours): no lactonization
loss in monatin ([5]; 50° C. and pH 3, over 48 hours): 23%
loss in monatin ([5]; 100° C. and pH 3, after 24 hours): nearly all monatin was lost
loss in monatin ([5]; room temperature (25° C.) and pH 3, over 48 hours): 14%
change in concentration of monatin or lactones thereof ([7]; 80° C. and pH 7, up to 35 days): no change in concentration
degree of degradation of monatin ([7]; 80° C., pH 7, after 7-35 days): insignificant
Compound: NC(CC(O)(Cc1c[nH]c2ccccc12)C(=O)O)C(=O)O (racemic) [Monatin, 2-hydroxy-2-(indol-3-ylmethyl)-4-aminoglutaric acid]
SEV ([1]; Monatin Conc. 15 ppm): 3.6 %; w/v
SEV ([1]; Monatin Conc. 30 ppm): 4.9 %; w/v
SEV ([1]; Monatin Conc. 45 ppm): 7.1 %; w/v
SEV ([1]; Monatin Conc. 60 ppm): 8.5 %; w/v
SEV ([1]; Monatin Conc. 75 ppm): 9.8 %; w/v
SEV ([1]; Monatin Conc. 90 ppm): 10.5 %; w/v
relative sweetness intensity ([1]; at 10.0% (w/v) SEV, blend of monatin stereoisomers (racemic mix)): 1250 × sweeter than sucrose
Effective Relative Sweetness Intensity (x sucrose) of Monatin ([2]; sweetness contribution of monatin 25%, sucrose 7.5%, monatin 12.3 ppm): 2000 x sucrose
Effective Relative Sweetness Intensity (x sucrose) of Monatin ([2]; sweetness contribution of monatin 50%, sucrose 5.0%, monatin 30.8 ppm): 1600 x sucrose
Effective Relative Sweetness Intensity (x sucrose) of Monatin ([2]; sweetness contribution of monatin 75%, sucrose 2.5%, monatin 50.3 ppm): 1500 x sucrose
sweetness intensity when blended with carbohydrate sweeteners ([2]; blended with carbohydrate sweeteners): 1500-2000 × sucrose
Aftertaste [4, 10]: slight “aspartame-like” aftertaste
sweet taste decay [4, 10]: quite rapid
sweet taste onset [4, 10]: slight delay
cooling sensation ([4]; sole sweetener, un-flavored systems (pH 3.2)): residual cooling sensation
stability when exposed to ultra violet (UV) light [6]: similarly stable or slightly more stable than aspartame
quantitative synergy with aspartame, saccharin, acesulfame-K, sucralose, or carbohydrate sweeteners ([8]; blends): no significant quantitative synergy
quantitative synergy with cyclamates ([8]; blends with cyclamates): quantitatively synergistic

Compound: COC(=O)[C@H](Cc1ccccc1)NC(=O)[C@@H](N)CC(=O)O [Aspartame, aspartame] (H-Asp-Phe-OMe)
Comments (sensory evaluation) [9]: Balanced sweetness profile. Very low level
